Assay [1] deals with Receptor-type tyrosine-protein kinase FLT3 (Homo sapiens) (UniProt P36888). The assay can be described thus: Inhibition of Flt3 at 10 uM by HTRF method. The arrangement: scale not given: the % may be the effect or the level left.
Assay [2] deals with Bcr/Abl fusion protein (Homo sapiens) (UniProt P00519+P11274). As to the kind of experiment: Inhibition of bcr-Abl at 10 uM by HTRF method. The assay is classed as protein assay. The arrangement: scale not given: the % may be the effect or the level left. (Time-resolved FRET reads energy transfer from a long-lived donor to a nearby acceptor.)
Assay [3] addresses cAMP-dependent protein kinase (PKA) (Homo sapiens) (UniProt P22694+P17612+P22612). The assay can be described thus: Inhibition against PKA at 10 uM by HTRF method. The assay is classed as protein assay. Further details: scale not given: the % may be the effect or the level left.
Assay [4] deals with Cyclin-dependent kinase 5 (Homo sapiens) (UniProt Q00535). As to the kind of experiment: […] against Cdk5 at 10 uM by HTRF method.
For assay [5], the target named is Receptor tyrosine-protein kinase erbB-2 (Homo sapiens) (UniProt P04626). As to the kind of experiment: […] against ErbB2 at 10 uM by HTRF method.
Assay [6] concerns the target Hepatocyte growth factor receptor (Homo sapiens) (UniProt P08581). As to the kind of experiment: Percent inhibition against c-Met at 10 uM by HTRF method. Further details: scale not given: the % may be the effect or the level left.
The target in assay [7] is Insulin-like growth factor 1 receptor (Homo sapiens) (UniProt P08069). The assay can be described thus: […] against IGF1R at 10 uM by HTRF method.
Sequence of Insulin-like growth factor 1 receptor (Homo sapiens) (P08069 31-736 limits assumed): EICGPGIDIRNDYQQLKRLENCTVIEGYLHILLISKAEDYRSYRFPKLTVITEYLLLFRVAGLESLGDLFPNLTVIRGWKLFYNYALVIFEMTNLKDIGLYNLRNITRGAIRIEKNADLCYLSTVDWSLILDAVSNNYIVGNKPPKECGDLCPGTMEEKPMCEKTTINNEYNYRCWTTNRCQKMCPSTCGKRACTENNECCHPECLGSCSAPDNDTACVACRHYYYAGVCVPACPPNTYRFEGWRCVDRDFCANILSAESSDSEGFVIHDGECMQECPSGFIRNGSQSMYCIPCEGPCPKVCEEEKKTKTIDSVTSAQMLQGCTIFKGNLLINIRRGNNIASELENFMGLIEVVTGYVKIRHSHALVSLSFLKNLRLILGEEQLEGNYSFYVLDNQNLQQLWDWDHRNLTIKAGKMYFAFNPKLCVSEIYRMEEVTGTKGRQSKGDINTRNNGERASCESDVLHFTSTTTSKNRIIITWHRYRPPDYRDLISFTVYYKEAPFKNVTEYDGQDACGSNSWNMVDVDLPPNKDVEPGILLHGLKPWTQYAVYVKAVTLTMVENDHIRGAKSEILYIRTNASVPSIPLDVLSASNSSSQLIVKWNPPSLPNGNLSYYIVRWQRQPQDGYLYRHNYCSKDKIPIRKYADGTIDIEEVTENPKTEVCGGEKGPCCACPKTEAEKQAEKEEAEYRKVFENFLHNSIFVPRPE
Sequence of Insulin-like growth factor 1 receptor (Homo sapiens) (P08069 741-1367 limits assumed): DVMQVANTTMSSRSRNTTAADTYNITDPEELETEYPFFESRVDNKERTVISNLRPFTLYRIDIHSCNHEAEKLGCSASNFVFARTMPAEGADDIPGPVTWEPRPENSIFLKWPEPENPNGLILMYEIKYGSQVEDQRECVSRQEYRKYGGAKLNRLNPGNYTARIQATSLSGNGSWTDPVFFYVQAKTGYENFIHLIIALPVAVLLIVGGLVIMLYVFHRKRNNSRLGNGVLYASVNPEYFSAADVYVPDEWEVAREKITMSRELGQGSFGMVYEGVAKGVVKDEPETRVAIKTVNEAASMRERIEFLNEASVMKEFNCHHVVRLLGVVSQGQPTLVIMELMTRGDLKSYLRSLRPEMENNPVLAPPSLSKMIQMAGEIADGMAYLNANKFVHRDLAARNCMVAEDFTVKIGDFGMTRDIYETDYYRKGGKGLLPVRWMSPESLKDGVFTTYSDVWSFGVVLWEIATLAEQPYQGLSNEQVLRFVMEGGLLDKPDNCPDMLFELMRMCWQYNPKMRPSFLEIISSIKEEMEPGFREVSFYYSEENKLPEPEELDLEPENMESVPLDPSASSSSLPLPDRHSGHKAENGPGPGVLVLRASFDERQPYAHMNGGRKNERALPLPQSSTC
In assay [8] the target is Vascular endothelial growth factor receptor 1 (Homo sapiens, UniProt P17948). The assay can be described thus: Inhibition of VEGFR1 by enzymatic assay.
Sequence of Vascular endothelial growth factor receptor 1 (P17948 whole entry): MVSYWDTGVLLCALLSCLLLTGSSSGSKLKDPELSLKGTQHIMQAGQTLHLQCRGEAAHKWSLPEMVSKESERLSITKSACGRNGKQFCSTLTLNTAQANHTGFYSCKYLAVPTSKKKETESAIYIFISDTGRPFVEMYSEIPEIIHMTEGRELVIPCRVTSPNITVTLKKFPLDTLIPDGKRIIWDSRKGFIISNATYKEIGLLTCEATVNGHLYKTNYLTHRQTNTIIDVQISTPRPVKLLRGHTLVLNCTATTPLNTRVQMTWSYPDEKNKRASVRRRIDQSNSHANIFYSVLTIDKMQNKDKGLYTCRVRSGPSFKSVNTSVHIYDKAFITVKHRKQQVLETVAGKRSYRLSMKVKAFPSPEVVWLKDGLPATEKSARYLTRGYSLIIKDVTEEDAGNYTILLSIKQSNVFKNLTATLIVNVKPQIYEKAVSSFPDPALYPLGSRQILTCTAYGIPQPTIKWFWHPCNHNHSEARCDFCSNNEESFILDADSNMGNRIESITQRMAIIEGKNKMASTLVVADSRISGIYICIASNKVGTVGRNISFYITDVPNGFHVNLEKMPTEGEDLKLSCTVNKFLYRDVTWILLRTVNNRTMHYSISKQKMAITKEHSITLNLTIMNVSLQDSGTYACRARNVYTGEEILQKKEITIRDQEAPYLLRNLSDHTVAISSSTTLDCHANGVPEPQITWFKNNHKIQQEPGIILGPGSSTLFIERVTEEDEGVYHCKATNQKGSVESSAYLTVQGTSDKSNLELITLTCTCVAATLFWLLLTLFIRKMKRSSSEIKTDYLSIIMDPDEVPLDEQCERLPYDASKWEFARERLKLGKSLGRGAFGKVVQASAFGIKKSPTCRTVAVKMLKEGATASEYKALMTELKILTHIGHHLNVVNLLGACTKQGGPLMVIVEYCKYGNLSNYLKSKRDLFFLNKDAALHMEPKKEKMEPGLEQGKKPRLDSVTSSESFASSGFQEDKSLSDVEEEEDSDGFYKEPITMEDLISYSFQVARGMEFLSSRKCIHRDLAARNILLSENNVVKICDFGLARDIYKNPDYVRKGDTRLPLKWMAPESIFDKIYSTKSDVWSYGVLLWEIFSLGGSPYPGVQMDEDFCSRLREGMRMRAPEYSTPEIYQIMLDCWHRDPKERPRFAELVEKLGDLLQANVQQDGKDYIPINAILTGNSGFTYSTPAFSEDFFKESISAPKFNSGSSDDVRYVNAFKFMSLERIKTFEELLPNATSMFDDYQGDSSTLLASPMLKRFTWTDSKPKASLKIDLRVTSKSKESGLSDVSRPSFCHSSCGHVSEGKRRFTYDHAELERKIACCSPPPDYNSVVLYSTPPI
The target in assay [9] is Epidermal growth factor receptor (Homo sapiens) (UniProt P00533). As to the kind of experiment: […] against ErbB1 at 10 uM by HTRF method.
The target in assay [10] is T1, Vascular endothelial growth factor receptor 2 (Homo sapiens, UniProt P35968). As to the kind of experiment: Inhibition of VEGFR2 by enzymatic assay.
T1 sequence (P35968 whole entry): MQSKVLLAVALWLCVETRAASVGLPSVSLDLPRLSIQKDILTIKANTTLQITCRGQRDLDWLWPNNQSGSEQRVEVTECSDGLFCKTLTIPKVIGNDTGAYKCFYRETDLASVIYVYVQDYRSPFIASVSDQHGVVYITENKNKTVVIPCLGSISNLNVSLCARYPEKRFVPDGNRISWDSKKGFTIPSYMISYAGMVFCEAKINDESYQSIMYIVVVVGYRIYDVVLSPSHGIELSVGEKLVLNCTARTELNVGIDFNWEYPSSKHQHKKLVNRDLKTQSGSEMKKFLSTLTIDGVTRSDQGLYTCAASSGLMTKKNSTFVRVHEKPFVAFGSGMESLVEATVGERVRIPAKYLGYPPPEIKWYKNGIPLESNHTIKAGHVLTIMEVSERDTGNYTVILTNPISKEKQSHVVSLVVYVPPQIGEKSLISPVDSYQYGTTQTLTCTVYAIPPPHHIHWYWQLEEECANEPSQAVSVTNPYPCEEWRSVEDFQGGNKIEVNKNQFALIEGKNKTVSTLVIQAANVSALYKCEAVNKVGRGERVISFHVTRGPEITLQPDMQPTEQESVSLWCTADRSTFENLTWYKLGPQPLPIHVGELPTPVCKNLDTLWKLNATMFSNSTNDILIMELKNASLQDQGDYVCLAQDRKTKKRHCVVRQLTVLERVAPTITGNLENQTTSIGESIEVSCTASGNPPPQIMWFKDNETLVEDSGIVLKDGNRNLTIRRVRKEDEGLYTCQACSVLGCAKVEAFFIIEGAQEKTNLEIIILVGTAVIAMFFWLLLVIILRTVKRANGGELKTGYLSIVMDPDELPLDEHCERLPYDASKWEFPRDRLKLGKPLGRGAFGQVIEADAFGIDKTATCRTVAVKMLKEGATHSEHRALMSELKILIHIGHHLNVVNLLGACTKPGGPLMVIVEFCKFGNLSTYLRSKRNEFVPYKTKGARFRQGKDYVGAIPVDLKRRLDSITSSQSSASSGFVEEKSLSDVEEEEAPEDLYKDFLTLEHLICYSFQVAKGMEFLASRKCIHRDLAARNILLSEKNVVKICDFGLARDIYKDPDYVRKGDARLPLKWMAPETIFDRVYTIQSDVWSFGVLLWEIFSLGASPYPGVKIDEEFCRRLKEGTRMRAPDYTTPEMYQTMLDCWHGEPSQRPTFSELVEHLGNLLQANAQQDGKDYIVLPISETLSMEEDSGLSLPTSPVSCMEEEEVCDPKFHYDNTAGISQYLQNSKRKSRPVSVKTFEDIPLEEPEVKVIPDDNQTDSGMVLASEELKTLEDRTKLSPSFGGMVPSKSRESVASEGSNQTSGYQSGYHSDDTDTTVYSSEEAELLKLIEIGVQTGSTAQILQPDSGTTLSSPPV
Assay [11] addresses Glycogen synthase kinase-3 beta (Homo sapiens) (UniProt P49841). As to the kind of experiment: Inhibition against GSK3-beta at 10 uM by HTRF method. The arrangement: scale not given: the % may be the effect or the level left.
In assay [12] the target is Cyclin-dependent kinase 2 (Homo sapiens) (UniProt P24941). As to the kind of experiment: […] against Cdk2 at 10 uM by HTRF method.
Assay [13] has as its target T2, Ephrin type-B receptor 4 (Homo sapiens) (UniProt P54760).
T2 sequence (whole entry): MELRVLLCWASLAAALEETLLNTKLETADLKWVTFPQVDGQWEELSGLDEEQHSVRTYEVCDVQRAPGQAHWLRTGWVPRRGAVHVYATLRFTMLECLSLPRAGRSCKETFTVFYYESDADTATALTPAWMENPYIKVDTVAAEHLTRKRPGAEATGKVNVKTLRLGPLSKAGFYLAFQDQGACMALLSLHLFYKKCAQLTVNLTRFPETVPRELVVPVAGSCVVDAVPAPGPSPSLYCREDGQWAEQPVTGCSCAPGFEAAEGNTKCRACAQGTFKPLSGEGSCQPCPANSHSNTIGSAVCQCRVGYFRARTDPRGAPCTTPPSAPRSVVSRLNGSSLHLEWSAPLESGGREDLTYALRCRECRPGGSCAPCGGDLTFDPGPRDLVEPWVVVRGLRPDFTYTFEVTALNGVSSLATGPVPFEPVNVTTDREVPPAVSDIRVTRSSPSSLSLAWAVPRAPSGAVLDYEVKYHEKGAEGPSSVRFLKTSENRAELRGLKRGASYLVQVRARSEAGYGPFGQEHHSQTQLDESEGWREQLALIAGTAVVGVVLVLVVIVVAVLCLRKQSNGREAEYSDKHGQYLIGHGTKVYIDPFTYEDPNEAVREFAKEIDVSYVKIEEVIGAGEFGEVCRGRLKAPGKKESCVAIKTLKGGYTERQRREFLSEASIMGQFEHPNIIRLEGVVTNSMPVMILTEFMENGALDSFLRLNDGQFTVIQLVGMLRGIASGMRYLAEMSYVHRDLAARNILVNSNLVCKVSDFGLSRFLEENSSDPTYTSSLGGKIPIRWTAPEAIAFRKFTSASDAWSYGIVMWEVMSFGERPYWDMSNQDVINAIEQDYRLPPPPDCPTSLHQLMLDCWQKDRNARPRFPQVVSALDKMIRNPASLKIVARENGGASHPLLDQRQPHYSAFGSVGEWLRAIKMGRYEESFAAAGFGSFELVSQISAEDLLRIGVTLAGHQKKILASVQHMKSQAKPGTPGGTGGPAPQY
The assay can be described thus: Percent inhibition against EphB4 at 10 uM by HTRF method. The arrangement: scale not given: the % may be the effect or the level left.

Assay [14] addresses Fibroblast growth factor receptor 1 (Homo sapiens) (UniProt P11362). The assay can be described thus: Percent inhibition against FGFR1 at 10 uM by HTRF method. Further details: scale not given: the % may be the effect or the level left.
Assay [15] deals with T1, Vascular endothelial growth factor receptor 2. As to the kind of experiment: Inhibition of VEGFR2 in 293 adenovirus transfected kidney cells by cell-based ELISA assay.
For assay [16], the target named is RAC-alpha serine/threonine-protein kinase (Homo sapiens) (UniProt P31749). As to the kind of experiment: […] against PKB/Akt at 10 uM by HTRF method.
Sequence of RAC-alpha serine/threonine-protein kinase (Homo sapiens) (P31749 whole entry): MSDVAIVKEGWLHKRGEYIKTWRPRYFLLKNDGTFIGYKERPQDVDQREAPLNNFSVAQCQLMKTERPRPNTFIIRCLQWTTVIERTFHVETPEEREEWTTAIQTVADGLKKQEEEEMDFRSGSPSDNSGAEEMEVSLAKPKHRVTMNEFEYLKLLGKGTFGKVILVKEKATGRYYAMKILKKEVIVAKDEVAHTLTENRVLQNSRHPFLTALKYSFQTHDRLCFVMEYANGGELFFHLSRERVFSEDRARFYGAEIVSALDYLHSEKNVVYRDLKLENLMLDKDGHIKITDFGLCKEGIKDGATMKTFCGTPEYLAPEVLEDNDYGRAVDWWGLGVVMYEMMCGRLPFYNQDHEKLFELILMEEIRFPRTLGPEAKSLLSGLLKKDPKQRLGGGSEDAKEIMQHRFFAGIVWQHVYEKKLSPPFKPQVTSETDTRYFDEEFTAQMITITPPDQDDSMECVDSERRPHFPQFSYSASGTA

Sequence of Glycogen synthase kinase-3 beta (Homo sapiens) (P49841 whole entry, looked up): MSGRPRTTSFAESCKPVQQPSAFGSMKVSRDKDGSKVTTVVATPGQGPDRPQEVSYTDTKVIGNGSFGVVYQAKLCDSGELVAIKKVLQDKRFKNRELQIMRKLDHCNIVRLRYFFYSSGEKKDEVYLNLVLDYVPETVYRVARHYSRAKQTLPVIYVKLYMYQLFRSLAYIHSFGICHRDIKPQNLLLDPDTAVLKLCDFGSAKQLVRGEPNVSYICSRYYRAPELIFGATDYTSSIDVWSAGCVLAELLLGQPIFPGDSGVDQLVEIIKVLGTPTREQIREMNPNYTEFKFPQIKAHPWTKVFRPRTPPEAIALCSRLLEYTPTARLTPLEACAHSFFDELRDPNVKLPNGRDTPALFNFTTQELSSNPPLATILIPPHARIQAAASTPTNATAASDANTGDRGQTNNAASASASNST

By IC50 is commonly meant the point on the concentration scale where inhibition reaches its midpoint. For `Cc1ccc(Nc2nnc(-c3c(NCc4ccncc4)ncn3C)o2)c(F)c1`, the Activity in assay [1], in [2], in [3], in assay [4], in assay [5] and in assay [6] was below 30% throughout. Besides, the Activity in [7], in assay [11], in assay [13], in assay [14] and in assay [16] was below 30% each time. Besides, the 50% inhibitory concentration (IC50) in [8] was determined as 590 nM; in [10], 260 nM; in [15] it was 640 nM. The Percent inhibition in [9] and in [12] was below 30% in each case.
Take `Cn1cnc(NCc2ccncc2)c1-c1nnc(Nc2ccc(Cl)cc2)o1`: the Activity in [1], in assay [2], in [3], in assay [4], in [5] and in [6] was below 30% in each case. Besides, the Activity in [7], in [11], in [13], in assay [14] and in assay [16] was below 30% throughout. For the same molecule, the IC50 turned out to be 340 nM in [8], 250 nM in assay [10] and 570 nM in assay [15]. Further, the Percent inhibition in assay [9] and in assay [12] was below 30% each time.
With `Cn1cnc(NCc2cccnc2)c1-c1nnc(Nc2ccc(Cl)cc2)o1`, the Activity in assay [1], in [2], in assay [3], in assay [4], in [5] and in assay [6] was below 30% in each case. Besides, the Activity in [7], in assay [11], in assay [13], in assay [14] and in assay [16] was below 30% in each case. Moreover, the IC50 in assay [8], in assay [10] and in assay [15] was above 10000 nM throughout. The Percent inhibition in assay [9] and in assay [12] was below 30% throughout.
As to `Cn1cnc(NCCc2ccc3c(c2)OCO3)c1-c1nnc(Nc2ccc(Cl)cc2)o1`, the Activity in assay [1], in assay [2], in [3], in assay [4], in [5] and in assay [6] was below 30% in each case. Besides, the Activity in assay [7], in assay [11], in assay [13], in assay [14] and in assay [16] was below 30% each time. The figures for the concentration for half-maximal inhibition (IC50) in assay [8], in assay [10] and in assay [15] were 1470 nM, 960 nM and above 10000 nM, respectively. For the same molecule, the Percent inhibition in assay [9] and in assay [12] was below 30% throughout.
Regarding `Cn1cnc(NCc2ccc3ccccc3n2)c1-c1nnc(Nc2ccc(Cl)cc2)o1`, the Activity in assay [1], in assay [2], in assay [3], in assay [4], in assay [5] and in assay [6] was below 30% each time. For the same molecule, the Activity in assay [7], in [11], in assay [13], in [14] and in [16] was below 30% each time. The IC50 in assay [8], in assay [10] and in assay [15] was above 10000 nM throughout. Also, the Percent inhibition in assay [9] and in [12] was below 30% in each case.
Consider `Cn1cnc(NCc2ccncc2)c1-c1nnc(Nc2ccc(Cl)c(C(F)(F)F)c2)o1`, for which the Activity in assay [1], in assay [2], in assay [3], in assay [4], in [5] and in assay [6] was below 30% throughout. Further, the Activity in assay [7], in assay [11], in [13], in assay [14] and in [16] was below 30% each time. The IC50 in [8] was determined as 510 nM; in assay [10], 43 nM; in assay [15], 100 nM. Further, the Percent inhibition in [9] and in assay [12] was below 30% throughout.
On to `Cn1cnc(NCc2ccccn2)c1-c1nnc(Nc2ccc(Cl)cc2)o1`, for which the Activity in [1], in [2], in [3], in assay [4], in assay [5] and in [6] was below 30% in each case. Further, the Activity in [7], in assay [11], in assay [13], in [14] and in [16] was below 30% each time. Moreover, the half-inhibitory concentration (IC50) in [8], in assay [10] and in assay [15] was above 10000 nM each time. The Percent inhibition in assay [9] and in [12] was below 30% in each case.
As to `CC(C)c1ccc(Nc2nnc(-c3c(NCc4ccncc4)ncn3C)o2)cc1`, the Activity in [1], in assay [2], in [3], in assay [4], in [5] and in assay [6] was below 30% each time. For the same molecule, the Activity in assay [7], in [11], in assay [13], in assay [14] and in assay [16] was below 30% in each case. Further, the IC50 is 770 nM in assay [8], 440 nM in assay [10] and 1150 nM in assay [15]. Also, the Percent inhibition in [9] and in [12] was below 30% throughout.
With `Cn1cnc(NCc2cccc3ncccc23)c1-c1nnc(Nc2ccc(Cl)cc2)o1`, the Activity in assay [1], in [2], in [3], in assay [4], in assay [5] and in assay [6] was below 30% in each case. Further, the Activity in assay [7], in assay [11], in [13], in assay [14] and in assay [16] was below 30% throughout. For the same molecule, the half-maximal inhibitory concentration (IC50) in assay [8] was above 10000 nM; in [10], 3540 nM; in [15], above 10000 nM. The Percent inhibition in assay [9] and in [12] was below 30% throughout.
Take `Cn1cnc(NCc2ccncc2)c1-c1nnc(Nc2ccc(Cl)c(Cl)c2)o1`: the Activity in [1], in [2], in assay [3], in assay [4], in [5] and in [6] was below 30% in each case. The Activity in assay [7], in [11], in [13], in [14] and in assay [16] was below 30% each time. Further, the 50% inhibitory concentration (IC50) in assay [8] was 490 nM; in assay [10] it was 180 nM; in assay [15] it was 260 nM. Further, the Percent inhibition in assay [9] and in assay [12] was below 30% throughout.

(Values after ChEMBL document CHEMBL1139649, “Hetaryl imidazoles: a novel dual inhibitors of VEGF receptors I and II” (Bioorg Med Chem Lett, 2006).)
